We go through eleven compounds from patent publication US20240246967A1, “AXL COMPOUNDS” (ARCUS BIOSCIENCES, INC., priority 2021, published 2024).

In the assay the target is T1, Axl (Homo sapiens, UniProt P30530).
T1 sequence (P30530 26-894): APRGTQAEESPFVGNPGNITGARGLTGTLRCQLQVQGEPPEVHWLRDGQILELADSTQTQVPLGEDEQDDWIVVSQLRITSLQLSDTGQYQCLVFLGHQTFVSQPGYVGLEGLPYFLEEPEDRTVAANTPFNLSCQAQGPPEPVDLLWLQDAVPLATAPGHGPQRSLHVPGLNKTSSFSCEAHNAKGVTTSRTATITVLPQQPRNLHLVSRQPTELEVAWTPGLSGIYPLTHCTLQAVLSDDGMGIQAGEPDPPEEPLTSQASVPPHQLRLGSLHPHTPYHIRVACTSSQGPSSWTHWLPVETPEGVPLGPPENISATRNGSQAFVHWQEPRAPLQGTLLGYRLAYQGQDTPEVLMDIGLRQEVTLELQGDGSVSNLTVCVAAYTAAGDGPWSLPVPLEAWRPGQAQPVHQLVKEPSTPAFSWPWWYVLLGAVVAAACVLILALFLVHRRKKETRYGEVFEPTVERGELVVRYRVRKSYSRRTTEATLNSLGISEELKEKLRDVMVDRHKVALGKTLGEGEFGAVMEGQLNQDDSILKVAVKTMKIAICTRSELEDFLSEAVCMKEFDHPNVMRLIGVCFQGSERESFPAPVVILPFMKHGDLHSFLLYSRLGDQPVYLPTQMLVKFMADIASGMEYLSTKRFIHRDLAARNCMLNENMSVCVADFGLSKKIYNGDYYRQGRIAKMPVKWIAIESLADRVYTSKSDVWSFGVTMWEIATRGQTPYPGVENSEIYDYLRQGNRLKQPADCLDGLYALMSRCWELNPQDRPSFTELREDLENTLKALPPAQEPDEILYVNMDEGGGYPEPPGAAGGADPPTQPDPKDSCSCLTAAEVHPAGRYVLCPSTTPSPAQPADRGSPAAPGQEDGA
The assay can be described thus: Axl NanoBRET intracellular kinase assay (intracellular binding, Cell Binding). Set-up: host or cells: HEK-293. Conditions: HEK-293 cells transfected with Axl-NanoLuc fusion vector; 0.35 μM K-5 NanoBRET tracer. Here is the method: Axl NanoBRET™ intracellular kinase assay (Promega, N2540) was performed according to manufacturer's recommendation. In brief, HEK-293 cells are transiently transfected with Axl-NanoLuc fusion vector (Promega, NV1071), utilizing Fugene HD transfection reagent (Promega, E2311) a day before experiment following manufacturer's recommendation.
The day of the assay, the cells were collected and resuspended in Opti-MEM media (ThermoFisher, 31985070) at 2e5 cells/mL concentration. Testing compounds were serial diluted and dispensed into a white 384 well polystyrene plate at 200 nL in 100% DMSO. 40 μL of resuspended cells is then added per well for a final condition of 8K cells/well with 0.5% DMSO. After one-hour compound pre-incubation at 37° C. and 5% CO2, cells were further incubated with 0.35 μM K-5 NanoBRET tracer for two-hours at 37° C. and 5% CO2. […] of 3× substrate plus Inhibitor solution was prepared according to kits manual and added to the cells followed by a 30 second pulse centrifugation spin. The plate was then immediately read utilizing an Envision (Perkin Elmer) plate reader. The BRET signal is measured by taking the ratio of the emissions reading at 610 nm and 450 nm. Compound binding is based on the decrease BRET signal caused by the displacement of the K-5 tracer. […] IC50 value of compounds was determined by 4-parameter non-linear regression fitting of percent activity in GraphPad Prism software.
Broadly, the IC50 is the concentration needed to halve the response being measured. In the case of `CC1(N2CCC[C@H]2CO)CCc2ccc(-c3cnc4[nH]nc(-c5ccc(S(=O)(=O)C6CC6)cc5)c4c3)cc2CC1` (stereo partly drawn) [Example 4, [(2S)-1-(2-{3-[4-(Cyclopropanesulfonyl)phenyl]-1H-pyrazolo[3,4-b]pyridin-5-yl}-7-methyl-6,7,8,9-tetrahydro-5H-benzo[7]annulen-7-yl)pyrrolidin-2-yl]methanol], the IC50 is less than 100 nM.

Compound `C[C@H]1CCCN1C1(C)CCc2ccc(-c3cnc4[nH]nc(-c5ccc(S(=O)(=O)C6CC6)cc5)c4c3)cc2CC1` (stereo partly drawn) [Example 5, (2S)-1-(2-{3-[4-(Cyclopropanesulfonyl)phenyl]-1H-pyrazolo[3,4-b]pyridin-5-yl}-7-methyl-6,7,8,9-tetrahydro-5H-benzo[7]annulen-7-yl)-2-methylpyrrolidine] had an IC50 of less than 100 nM. To `CCC1(N2CCC[C@H]2C)CCc2ccc(-c3cnc4[nH]nc(-c5ccc(S(=O)(=O)C6CC6)cc5)c4c3)cc2CC1` (stereo partly drawn) [Example 6, (2R)-1-(2-{3-[4-(Cyclopropanesulfonyl)phenyl]-1H-pyrazolo[3,4-b]pyridin-5-yl}-7-ethyl-6,7,8,9-tetrahydro-5H-benzo[7]annulen-7-yl)-2-methylpyrrolidine] belongs 100 to 1000 nM; to `CC1(N2CCC2)CCc2ccc(-c3cnc4[nH]nc(-c5ccc(S(=O)(=O)C6CC6)cc5)c4c3)cc2CC1` (centres unmarked) [Example 7, 1-(2-{3-[4-(Cyclopropanesulfonyl)phenyl]-1H-pyrazolo[3,4-b]pyridin-5-yl}-7-methyl-6,7,8,9-tetrahydro-5H-benzo[7]annulen-7-yl)azetidine], less than 100 nM. To `C[C@@H]1CCCN1C1(C)CCc2ccc(-c3cnc4[nH]nc(-c5ccc(S(=O)(=O)C(F)(F)F)cc5)c4c3)cc2CC1` (stereo partly drawn) [Example 8, (2R)-2-Methyl-1-{7-methyl-2-[3-(4-trifluoromethanesulfonylphenyl)-1H-pyrazolo[3,4-b]pyridin-5-yl]-6,7,8,9-tetrahydro-5H-benzo[7]annulen-7-yl}pyrrolidine] belongs more than 1000 nM; to `CC(C)(O)c1ccc(-c2n[nH]c3ncc(-c4ccc5c(c4)CCC(N4CCCC4)CC5)cc23)cn1` (centres unmarked) [Example 9, 2-(5-{5-[7-(Pyrrolidin-1-yl)-6,7,8,9-tetrahydro-5H-benzo[7]annulen-2-yl]-1H-pyrazolo[3,4-b]pyridin-3-yl}pyridin-2-yl)propan-2-ol], less than 100 nM.

`CC(C)(O)c1ccc(-c2n[nH]c3ncc(-c4ccc5c(c4)CCN(C4CCCC4)CC5)cc23)cn1` [Example 10, 2-{5-[5-(3-Cyclopentyl-2,3,4,5-tetrahydro-1H-3-benzazepin-7-yl)-1H-pyrazolo[3,4-b]pyridin-3-yl]pyridin-2-yl}propan-2-ol] came in with a half-inhibitory concentration (IC50) of 100 to 1000 nM.

As to `CC(C)(O)c1ccc(-c2n[nH]c3ncc(-c4ccc5c(c4)CCC(N4CCCC4)CC5)cc23)cc1Cl` (centres unmarked) [Example 11, 2-(2-Chloro-4-{5-[7-(pyrrolidin-1-yl)-6,7,8,9-tetrahydro-5H-benzo[7]annulen-2-yl]-1H-pyrazolo[3,4-b]pyridin-3-yl}phenyl)propan-2-ol], the IC50 is less than 100 nM. To `CC(C)(O)c1ccc(-c2n[nH]c3ncc(-c4ccc5c(c4)CCN(C4CCCC4)CC5)cc23)cc1Cl` [Example 12, 2-{2-Chloro-4-[5-(3-cyclopentyl-2,3,4,5-tetrahydro-1H-3-benzazepin-7-yl)-1H-pyrazolo[3,4-b]pyridin-3-yl]phenyl}propan-2-ol] belongs 100 to 1000 nM. To `CC(C)(O)c1ccc(-c2n[nH]c3ncc(-c4ccc5c(c4)CCN(C4CCCC4)CC5)cc23)cc1C(F)(F)F` [Example 16, 2-{4-[5-(3-Cyclopentyl-2,3,4,5-tetrahydro-1H-3-benzazepin-7-yl)-1H-pyrazolo[3,4-b]pyridin-3-yl]-2-(trifluoromethyl)phenyl}propan-2-ol] belongs 100 to 1000 nM.

`CC(C)(O)c1ccc(-c2n[nH]c3ncc(-c4ccc5c(c4)CCN(C4CCCC4)CC5)cc23)c(F)c1` [Example 17, 2-{4-[5-(3-Cyclopentyl-2,3,4,5-tetrahydro-1H-3-benzazepin-7-yl)-1H-pyrazolo[3,4-b]pyridin-3-yl]-3-fluorophenyl}propan-2-ol] yielded a half-inhibitory concentration (IC50) of 100 to 1000 nM.
